Among the test systems are MOLT-4 leukemia; UACC-257 melanoma; SF-295 CNS; K-562 leukemia; PC-3 prostate; SK-MEL-28 melanoma; HT29 colon; SF-268 CNS; CCRF-CEM leukemia; SR leukemia.
Common to all, as to assay: NCI tumour cell line growth inhibition, 48 h

Data on 16 compounds can be found in PubChem BioAssay (NCI).

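Five concentrations, 48 hours, 96-well plates. GI50 marks 50% less growth. The concentration for full growth arrest is given as TGI.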

As to `COC(=O)/C(C#N)=C\N1CCN(C(=O)c2ccco2)C1=S`, the GI50 with MOLT-4 leukemia is 7.41 µM; in the experiment on UACC-257 melanoma, 5940 nM; in the experiment on SF-295 CNS, 26 µM; in the experiment on K-562 leukemia, 3.68 µM; in the experiment on PC-3 prostate it was 6820 nM; with SK-MEL-28 melanoma, 13 µM. For the same compound, the GI50 was 12200 nM in the experiment on HT29 colon and 4.83 µM in the experiment with SF-268 CNS. Further, the TGI in the experiment on MOLT-4 leukemia is over 100 µM; in the experiment on UACC-257 melanoma, 22.5 µM; with SF-295 CNS, 65.1 µM; in the experiment on K-562 leukemia, over 100 µM; with PC-3 prostate it was 63.4 µM; with SK-MEL-28 melanoma, 79.6 µM. The results for the TGI with HT29 colon and with SF-268 CNS were 55.1 µM and 17.9 µM, respectively.
Consider `COc1cc(/C=C/C(=O)C(=Cc2ccc(F)c(F)c2)C(=O)/C=C/c2ccc(O)c(OC)c2)ccc1O`, for which the GI50 in the experiment with MOLT-4 leukemia is 2.75 µM; in the experiment with CCRF-CEM leukemia it was 2460 nM; with UACC-257 melanoma, 1780 nM; with SF-295 CNS, 3.63 µM; in the experiment on K-562 leukemia it was 3.16 µM; with PC-3 prostate, 2490 nM. The GI50 in the experiment on SR leukemia is 2830 nM; with SK-MEL-28 melanoma it was 1.87 µM; in the experiment with HT29 colon it was 1720 nM; with SF-268 CNS it was 2.74 µM. Also, the TGI is over 100 µM in the experiment on MOLT-4 leukemia; over 100 µM with CCRF-CEM leukemia; 4.37 µM in the experiment on UACC-257 melanoma; 25.1 µM with SF-295 CNS; 32.8 µM in the experiment on K-562 leukemia; 8.31 µM with PC-3 prostate. The TGI amounted to 9.2 µM with SR leukemia, 3.8 µM with SK-MEL-28 melanoma, 3.63 µM in the experiment with HT29 colon and 12.5 µM with SF-268 CNS.
With `O=C1C=C2S[C@H]3C[C@]2(C=C1Br)c1c(c(O)c2c4c1=NCCC=4C=N2)N3`, the TGI was 0.418 µM with MOLT-4 leukemia; 0.557 µM in the experiment with UACC-257 melanoma; 2.83 µM with SF-295 CNS; 4.52 µM in the experiment with PC-3 prostate; over 100 µM in the experiment with SR leukemia; 2.76 µM in the experiment on SK-MEL-28 melanoma. Further, the TGI in the experiment on HT29 colon is 1.55 µM; in the experiment on SF-268 CNS it was 2.91 µM.
With `Clc1ccc(-c2nc3c(-c4ccc(Cl)cc4)nc(-c4ccccc4)cn3c2-c2ccc(Cl)cc2)cc1`, the GI50 with MOLT-4 leukemia was over 50 µM; in the experiment with CCRF-CEM leukemia, over 50000 nM; in the experiment on UACC-257 melanoma, over 50000 nM; in the experiment with SF-295 CNS it was 12 µM; in the experiment with K-562 leukemia it was over 50 µM; with PC-3 prostate, over 50000 nM. For the same compound, the GI50 was over 50 µM with SK-MEL-28 melanoma, over 50000 nM in the experiment with HT29 colon and over 50 µM with SF-268 CNS. For the same compound, the TGI with MOLT-4 leukemia, in the experiment with CCRF-CEM leukemia, in the experiment on UACC-257 melanoma, in the experiment on SF-295 CNS, in the experiment on K-562 leukemia and in the experiment on PC-3 prostate was over 50 µM each time. Besides, the TGI in the experiment with SK-MEL-28 melanoma, in the experiment with HT29 colon and with SF-268 CNS was over 50 µM in each case.
For `O=S(=O)(NCCNc1nccc(-c2c(-c3cccc(O)c3)nc3sccn23)n1)c1ccc(F)cc1`, the GI50 in the experiment on MOLT-4 leukemia was 5.53 µM; with CCRF-CEM leukemia, 2800 nM; in the experiment on UACC-257 melanoma it was 568 nM; with K-562 leukemia, 3.88 µM; in the experiment with PC-3 prostate it was 5660 nM; in the experiment with SR leukemia, 2650 nM. For the same compound, the GI50 in the experiment on SK-MEL-28 melanoma is 0.66 µM; in the experiment with HT29 colon, 2660 nM; in the experiment on SF-268 CNS, 7.51 µM. In addition, the TGI is 32 µM with MOLT-4 leukemia; over 100 µM with CCRF-CEM leukemia; 16.5 µM with UACC-257 melanoma; over 100 µM in the experiment with K-562 leukemia; 63.5 µM in the experiment with PC-3 prostate; 57.3 µM in the experiment on SR leukemia. The values for the TGI in the experiment with SK-MEL-28 melanoma, in the experiment with HT29 colon and with SF-268 CNS were 24 µM, 32.4 µM and 42.3 µM, respectively.
Regarding `C/C(CC(O)(C(F)(F)F)C(F)(F)F)=N\N`, the TGI with MOLT-4 leukemia, in the experiment with CCRF-CEM leukemia, with UACC-257 melanoma, in the experiment with SF-295 CNS, with K-562 leukemia and in the experiment with PC-3 prostate was over 10 µM throughout. Besides, the TGI with SK-MEL-28 melanoma, in the experiment on HT29 colon and with SF-268 CNS was over 10 µM in each case.
`Cn1cc(-c2csc(-c3c[nH]c4ncccc34)n2)c2cc(Br)cnc21`: the GI50 in the experiment with MOLT-4 leukemia was over 100 µM; with CCRF-CEM leukemia it was 6810 nM; in the experiment on SF-295 CNS, 3.01 µM; in the experiment on K-562 leukemia, 8.76 µM; with PC-3 prostate, 4350 nM; in the experiment on HT29 colon, 6750 nM. Moreover, in the experiment with SF-268 CNS, the GI50 was 6.01 µM. Also, the TGI in the experiment with MOLT-4 leukemia is over 100 µM; in the experiment with CCRF-CEM leukemia, over 100 µM; in the experiment with SF-295 CNS, 18.8 µM; in the experiment on K-562 leukemia, over 100 µM; in the experiment on PC-3 prostate, over 100 µM; in the experiment with HT29 colon, over 100 µM. Besides, the TGI in the experiment on SF-268 CNS was over 100 µM.
Turning to `C=C1C(=O)OC2CCCCC3OC3C12` (centres undefined), the TGI came out at 33.2 µM with MOLT-4 leukemia; 20.2 µM in the experiment on CCRF-CEM leukemia; 26.5 µM in the experiment on UACC-257 melanoma; 48.6 µM with SF-295 CNS; 70.5 µM in the experiment on K-562 leukemia; 53.1 µM in the experiment on SR leukemia. In addition, the figures for the TGI with SK-MEL-28 melanoma, in the experiment with HT29 colon and in the experiment with SF-268 CNS were 23.9 µM, 32.2 µM and 31.1 µM, respectively.
As to `Cc1cc2c3ccccc3n(C)c2c2c1C(=O)c1ccccc1C2=O`, the TGI in the experiment on MOLT-4 leukemia turned out to be 27.4 µM; in the experiment on CCRF-CEM leukemia, 25.5 µM; with UACC-257 melanoma it was 43.3 µM; with SF-295 CNS, 41.2 µM; with K-562 leukemia it was 55.1 µM; with SR leukemia, 22.5 µM. In addition, the TGI was 65 µM with SK-MEL-28 melanoma, 73.2 µM in the experiment on HT29 colon and over 100 µM with SF-268 CNS.
For `O=C(Nc1cccc(Cl)c1)Nc1cccc(Cl)c1`, the GI50 in the experiment on MOLT-4 leukemia is 23.8 µM; in the experiment with UACC-257 melanoma, over 100000 nM; in the experiment on SF-295 CNS, 3.01 µM; with K-562 leukemia, 3.23 µM; with PC-3 prostate, 2540 nM; in the experiment on SK-MEL-28 melanoma, over 100 µM. The results for the GI50 in the experiment with HT29 colon and with SF-268 CNS were 2260 nM and over 81.6 µM, respectively. In addition, the TGI in the experiment on MOLT-4 leukemia, with UACC-257 melanoma, in the experiment with SF-295 CNS, in the experiment with K-562 leukemia, in the experiment on PC-3 prostate and in the experiment with SK-MEL-28 melanoma was over 100 µM in each case. Further, the TGI in the experiment on HT29 colon and in the experiment on SF-268 CNS was over 100 µM in each case.
For the compound `Fc1ccc(-c2nc(-c3nc4ccc(Cl)cc4[nH]3)cc3c2[nH]c2ccccc23)cc1`, the GI50 with MOLT-4 leukemia was 2.48 µM; in the experiment with CCRF-CEM leukemia it was 3370 nM; in the experiment on UACC-257 melanoma, 2400 nM; with K-562 leukemia it was 3.32 µM; in the experiment on PC-3 prostate it was 2090 nM; with SR leukemia it was 3710 nM. For the same compound, the GI50 in the experiment with SK-MEL-28 melanoma was 4.25 µM; with HT29 colon it was 4310 nM; in the experiment with SF-268 CNS, 3.66 µM. In addition, the TGI in the experiment on MOLT-4 leukemia is 8.37 µM; in the experiment on CCRF-CEM leukemia, 20.3 µM; with UACC-257 melanoma, 6.62 µM; with K-562 leukemia, 38.4 µM; with PC-3 prostate, 6.95 µM; in the experiment with SR leukemia it was over 100 µM. For the same compound, the TGI was 14.9 µM with SK-MEL-28 melanoma, 12.8 µM in the experiment with HT29 colon and 17.7 µM in the experiment with SF-268 CNS.
In the case of `O=[N+]([O-])c1cccc(C2SCc3nc4ccccc4n32)c1` (centres undefined), the TGI in the experiment on MOLT-4 leukemia, with CCRF-CEM leukemia, in the experiment on UACC-257 melanoma, in the experiment on SF-295 CNS, with K-562 leukemia and in the experiment on SR leukemia was over 100 µM each time. For the same compound, the TGI in the experiment on SK-MEL-28 melanoma, with HT29 colon and with SF-268 CNS was over 100 µM each time.
For `Cc1c2ccccc2c(C)c2c3c(ccc12)C(=O)C=CC3=O`, the TGI in the experiment on MOLT-4 leukemia is 6.78 µM; in the experiment on CCRF-CEM leukemia it was 6.75 µM; in the experiment on UACC-257 melanoma it was 41.5 µM; in the experiment with SF-295 CNS, over 31.6 µM; in the experiment on K-562 leukemia, 50.9 µM; with SR leukemia it was 25.2 µM. For the same compound, the TGI was over 57.1 µM in the experiment on SK-MEL-28 melanoma, over 65.8 µM with HT29 colon and 43.1 µM in the experiment on SF-268 CNS.
With `O=C(c1cc2ccccc2[nH]1)C(O)(c1cc2ccccc2[nH]1)c1cc2ccccc2[nH]1`, the TGI in the experiment on MOLT-4 leukemia, in the experiment with CCRF-CEM leukemia, with UACC-257 melanoma, in the experiment on SF-295 CNS, in the experiment on K-562 leukemia and in the experiment with SR leukemia was over 246 µM each time. The TGI in the experiment with SK-MEL-28 melanoma, with HT29 colon and with SF-268 CNS was over 246 µM throughout.
`CC(=O)NNc1nc(C)c(C(=O)NNC(=O)C(=O)Nc2ccc(C)c(C)c2)s1`: the TGI in the experiment with MOLT-4 leukemia, in the experiment on CCRF-CEM leukemia, in the experiment on UACC-257 melanoma, with SF-295 CNS, with K-562 leukemia and in the experiment with SR leukemia was over 100 µM each time. The TGI in the experiment with SK-MEL-28 melanoma, with HT29 colon and in the experiment with SF-268 CNS was over 100 µM each time.
For `CCN1CCN(CCOc2ccc(CNc3ccc4nc(CCC5CCCCC5)[nH]c4c3)cc2)CC1`, the GI50 is 1.87 µM with MOLT-4 leukemia; 1610 nM with CCRF-CEM leukemia; 1850 nM with UACC-257 melanoma; 1.99 µM in the experiment on SF-295 CNS; 0.42 µM with K-562 leukemia; 2020 nM in the experiment with PC-3 prostate. The GI50 with SR leukemia was 303 nM; in the experiment with HT29 colon, 563 nM; in the experiment with SF-268 CNS, 2 µM. Moreover, the TGI in the experiment on MOLT-4 leukemia came out at 6.09 µM; with CCRF-CEM leukemia, 8.75 µM; in the experiment with UACC-257 melanoma, 4.12 µM; in the experiment on SF-295 CNS it was 3.95 µM; with K-562 leukemia it was 2.69 µM; in the experiment with PC-3 prostate it was 5.89 µM. Moreover, the TGI with SR leukemia worked out at 0.941 µM; in the experiment on HT29 colon it was 2.38 µM; in the experiment on SF-268 CNS, 5.16 µM.
